Test results from ChEMBL document CHEMBL1154665, “Novel compounds designed as antistress agents” (J Med Chem, 2009).
Values belong to the compound of their own block, whether it stands above or below them.

Legend:
[1] = tested on: Brain; test: Antioxidant activity in rat brain homogenate assessed as malondialdehyde release; format: functional, tissue-based
[2] = tested on: Rattus norvegicus; test: Antistress activity against food and water deprivation-induced stress in rat assessed as increase in thymus weight measured per 100 gm of body weight at 0.055 mmol/kg, ip after 3 hrs; format: functional
[3] = tested on: Rattus norvegicus; test: Antistress activity against food and water deprivation-induced stress in rat assessed as increase in adrenal weight measured per 100 gm of body weight at 0.055 mmol/kg, ip after 3 hrs; format: functional
[4] = tested on: Rattus norvegicus; test: Antistress activity against food and water deprivation-induced stress in rat assessed as increase in liver weight measured per 100 gm of body weight at 0.055 mmol/kg, ip after 3 hrs; format: functional
[5] = tested on: Rattus norvegicus; test: Antistress activity against food and water deprivation-induced stress in rat assessed as change in body weight at 0.055 mmol/kg, ip after 3 hrs; format: functional
[6] = tested on: Rattus norvegicus; test: Antistress activity against food and water deprivation-induced stress in rat assessed as decrease in uropepsinogen level in urine at 0.055 mmol/kg, ip after 3 hrs; format: functional
[7] = tested on: Rattus norvegicus; test: Antistress activity against food and water deprivation-induced stress in rat assessed as reduction in malondialdehyde formation at 0.055 mmol/kg, ip after 3 hrs; format: functional
[8] = species: Rattus norvegicus; test: Antistress activity in rat assessed as decrease in stress-induced hepatic cytochrome P450 level by spectroscopically; format: functional; design: scale not given: the % may be the effect or the level left
[9] = species: Rattus norvegicus; test: Antistress activity in rat assessed as decrease in stress-induced oxidative N-demethylation of erythromycin; format: functional; design: scale not given: the % may be the effect or the level left
[10] = tested on: Rattus norvegicus; test: Antihyperlipidemic activity in triton WR 1339 treated rat assessed as plasma total cholesterol at 56 umol/kg, ip measured after 24 hrs; format: functional
[11] = tested on: Rattus norvegicus; test: Antihyperlipidemic activity in triton WR 1339 treated rat assessed as LDL-cholesterol at 56 umol/kg, ip measured after 24 hrs; format: functional
[12] = tested on: Rattus norvegicus; test: Antihyperlipidemic activity in triton WR 1339 treated rat assessed as triglyceride at 56 umol/kg, ip measured after 24 hrs; format: functional

SMILES: Cc1c(C)c2c(c(C)c1O)CC[C@](C)(C(=O)NCCCC(=O)OC1N=C(c3ccccc3Cl)c3cc(Cl)ccc3NC1=O)O2 (some centres undefined)
IC50 [1]: 1.1 µM
Activity [2]: 117 mg
Activity [3]: 34 mg
Activity [4]: 4.2 mg
Activity [5]: -10%
Activity [6]: 34 kiloU/hr
Activity [7]: 37.5 nmol/mg
Activity [8]: 35%
Activity [9]: 40%
Activity [10]: 40%
Activity [11]: 40%
Activity [12]: 40%

SMILES: CC(C)(C)c1cc(C(=O)NCCCC(=O)OC2N=C(c3ccccc3Cl)c3cc(Cl)ccc3NC2=O)cc(C(C)(C)C)c1O (centres undefined)
IC50 [1]: 24 µM
Activity [2]: 151 mg
Activity [3]: 40 mg
Activity [4]: 4.5 mg
Activity [5]: -3.8%
Activity [6]: 30 kiloU/hr
Activity [7]: 41.2 nmol/mg
Activity [10]: 40%
Activity [11]: 40%
Activity [12]: 40%

IC50 [1]: 257 µM
SMILES: CC(C)(C)c1cc(C(=O)O)cc(C(C)(C)C)c1O

IC50 [1]: 25 µM
SMILES: Cc1c(C)c2c(c(C)c1O)CC[C@](C)(C(=O)O)O2 [(R)-TROLOX]
